42 compounds from patent publication US20230295110A1, “PHD INHIBITOR COMPOUNDS, COMPOSITIONS, AND METHODS OF USE” (Akebia Therapeutics, Inc., priority 2020, published 2023) can be followed below.

One may read the IC50 as the concentration that inhibits the measured activity by half. Usually Km stands for the concentration of substrate that gives half-maximal velocity.

For one experiment, the target named is full-length human PHD1 (Homo sapiens (Human), UniProt Q96KS0). The experiment can be described thus: TR-FRET assay for PHD enzymes, PHD1. The class given is biochemical. The conditions noted are these: for IC50: TR-FRET, 15 nM PHD1, 1 μM 2-OG. The source says: PHD1 was expressed in a baculovirus expression system as the full-length protein (NCBI accession number NP_542770.2) with an N-terminal FLAG tag (molecular weight 44.9 kDa).
Sequence of full-length human PHD1 (Q96KS0 whole entry): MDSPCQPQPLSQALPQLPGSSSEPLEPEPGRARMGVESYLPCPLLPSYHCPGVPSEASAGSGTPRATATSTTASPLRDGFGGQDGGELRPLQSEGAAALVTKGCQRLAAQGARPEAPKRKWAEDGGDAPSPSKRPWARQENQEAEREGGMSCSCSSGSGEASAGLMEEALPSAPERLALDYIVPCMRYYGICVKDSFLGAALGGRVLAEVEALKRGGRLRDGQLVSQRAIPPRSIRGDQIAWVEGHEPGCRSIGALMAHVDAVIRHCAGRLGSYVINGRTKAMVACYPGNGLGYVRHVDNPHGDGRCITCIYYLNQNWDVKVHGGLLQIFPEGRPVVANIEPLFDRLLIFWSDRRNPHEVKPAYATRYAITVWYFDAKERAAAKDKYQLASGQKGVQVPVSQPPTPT

The next experiment has as its target full-length human PHD2 (Homo sapiens (Human), UniProt Q9GZT9). The experiment can be described thus: TR-FRET assay for PHD enzymes, PHD2. (Time-resolved FRET reads energy transfer from a long-lived donor to a nearby acceptor.)
The target of another experiment is full-length human PHD3 (Homo sapiens (Human), UniProt Q9H6Z9). The experiment can be described thus: TR-FRET assay for PHD enzymes, PHD3. The class given is biochemical. The following applies: TR-FRET, 35 nM PHD3, 1 μM 2-OG. From the text:
Recombinant human PHD3 protein (molecular weight 31.1 kDa) was purchased from Active Motif (Carlsbad, CA, USA). It was expressed in E. coli as the full-length protein (NCBI accession number NP_071356.1) with an N-terminal 6-His tag (catalog #81033, Lot #24417001).

[1] abbreviates: read-out: PHD2 IC50, TR-FRET, 5 nM PHD2, 1 μM 2-OG.

Where two headings read alike, the source gives them in different places.

Sequence of full-length human PHD2 (Q9GZT9 whole entry): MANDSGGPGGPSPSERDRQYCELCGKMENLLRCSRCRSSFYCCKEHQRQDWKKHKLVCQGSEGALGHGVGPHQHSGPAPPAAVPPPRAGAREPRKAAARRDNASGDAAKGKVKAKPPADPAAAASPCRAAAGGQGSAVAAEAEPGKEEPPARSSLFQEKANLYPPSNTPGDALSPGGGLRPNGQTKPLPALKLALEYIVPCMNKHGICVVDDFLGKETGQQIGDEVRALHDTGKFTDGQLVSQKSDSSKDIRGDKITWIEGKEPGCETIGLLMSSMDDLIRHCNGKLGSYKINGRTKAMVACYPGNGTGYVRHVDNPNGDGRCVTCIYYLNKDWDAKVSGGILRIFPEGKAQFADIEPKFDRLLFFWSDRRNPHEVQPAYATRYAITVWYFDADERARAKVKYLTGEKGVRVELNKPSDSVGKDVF
Sequence of full-length human PHD3 (Q9H6Z9 whole entry): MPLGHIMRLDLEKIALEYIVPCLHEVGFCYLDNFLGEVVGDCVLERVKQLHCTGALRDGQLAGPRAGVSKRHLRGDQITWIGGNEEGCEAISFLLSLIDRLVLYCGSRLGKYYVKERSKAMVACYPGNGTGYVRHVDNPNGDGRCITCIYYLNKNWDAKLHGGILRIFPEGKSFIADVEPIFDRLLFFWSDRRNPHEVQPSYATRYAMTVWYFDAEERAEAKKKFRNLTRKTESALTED
Excerpt for full-length human PHD2: Time-resolved fluorescence resonance energy transfer (TR-FRET) assay was utilized to determine the enzymatic half maximal inhibitory concentration (IC50) value of PHD inhibitors against the full-length human prolyl-4-hydroxylase domain (PHD) enzymes, PHD1, PHD2, and PHD3. The TR-FRET assay was developed based on the specific binding of hydroxylated HIF-1α peptide with the complex formed by VHL, EloB and EloC (VBC), to generate a fluorescent signal. Terbium (Tb)-Donor (monoclonal antibody anti-6His-Tb-cryptate Gold) and D2-acceptor (streptavidin [SA]-D2) of TR-FRET are linked to the VBC complex and to HIF-1α peptide, respectively. The VBC complex binds specifically to the HIF-1α peptide when it is hydroxylated, allowing energy transfer from TR-FRET donor to acceptor (FIG. 1). […] The plates were incubated for 30 minutes at room temperature without rotation. […] TR-FRET assays were performed in triplicate at each concentration of compound and the assays were repeated independently three times.

Regarding `O=C(O)CNC(=O)c1ncc(-c2cccc(Cl)c2)c(C2CC2)c1O` [Compound 69, (5-(3-Chlorophenyl)-4-cyclopropyl-3-hydroxypicolinoyl)glycine], the IC50 at full-length human PHD1 and against full-length human PHD2 was 100 to 1000 nM each time.

For the compound `Cc1c(C(=O)c2ccccc2)cnc(C(=O)NCC(=O)O)c1O` [Compound 40, (5-benzoyl-3-hydroxy-4-methylpicolinoyl)glycine], the IC50 against full-length human PHD1 and on full-length human PHD2 was 100 to 1000 nM each time.

As for `Cc1c(-c2cnc(-c3ccccc3)s2)cnc(C(=O)NCC(=O)O)c1O` [Compound 7, (3-Hydroxy-4-methyl-5-(2-phenylthiazol-5-yl)picolinoyl)glycine], the IC50 at full-length human PHD1, against full-length human PHD3 and at full-length human PHD2 (setting [1]) was below 100 nM each time.

Consider `Cc1c(Oc2ccccc2)cnc(C(=O)NCC(=O)O)c1O` [Compound 35, (3-hydroxy-4-methyl-5-phenoxypicolinoyl)glycine], for which the IC50 on full-length human PHD1 and at full-length human PHD2 (setting [1]) was 100 to 1000 nM in each case.

`Cc1c(-c2cccc(F)c2)cnc(C(=O)NCC(=O)O)c1O` [Compound 1, (5-(3-Fluorophenyl)-3-hydroxy-4-methylpicolinoyl)glycine]: the IC50 at full-length human PHD1 and on full-length human PHD2 (setting [1]) was below 100 nM throughout.

Consider `Cc1c(-c2cnn(-c3ccccc3)c2C)cnc(C(=O)NCC(=O)O)c1O` [Compound 50, (3-hydroxy-4-methyl-5-(5-methyl-1-phenyl-1H-pyrazol-4-yl)picolinoyl)glycine], for which the IC50 on full-length human PHD1 and against full-length human PHD2 was 100 to 1000 nM throughout.

With `Cc1c(-c2cnn(-c3ccccc3)c2F)cnc(C(=O)NCC(=O)O)c1O` [Compound 49, (5-(5-fluoro-1-phenyl-1H-pyrazol-4-yl)-3-hydroxy-4-methylpicolinoyl)glycine], the IC50 at full-length human PHD1 and on full-length human PHD2 (setting [1]) was below 100 nM throughout.

Regarding `O=C(O)CCC(=O)C(=O)O` [Compound 2-OG, 2-oxoglutarate, reference compound], the Km on full-length human PHD1 (read-out: Km of 2-OG for PHD1) was found to be 12.7 nM.

Consider `Cc1c(-c2cccc(Cl)c2)cnc(C(=O)NC2(C(=O)O)CCC2)c1O` [Compound 15, 1-(5-(3-Chlorophenyl)-3-hydroxy-4-methylpicolinamido)cyclobutane-1-carboxylic acid], for which the half-maximal inhibitory concentration (IC50) at full-length human PHD1 and against full-length human PHD2 was above 10000 nM in each case.

For the compound `Cc1c(-c2ccn(-c3ccccc3)c2)cnc(C(=O)NCC(=O)O)c1O` [Compound 51], the values for the IC50 against full-length human PHD1 and against full-length human PHD2 were below 100 nM and 100 to 1000 nM, respectively.

Take `Cc1c(-c2nnn(-c3cc(Cl)cc(Cl)c3)n2)cnc(C(=O)NCC(=O)O)c1O` [Compound 45, (5-(2-(3,5-dichlorophenyl)-2H-tetrazol-5-yl)-3-hydroxy-4-methylpicolinoyl)glycine]: the IC50 against full-length human PHD1 and on full-length human PHD2 (setting [1]) was below 100 nM each time.

For `Cc1c(-c2ccc3ncccc3c2)cnc(C(=O)NCC(=O)O)c1O` [Compound 34, (3-hydroxy-4-methyl-5-(quinolin-6-yl)picolinoyl)glycine], the IC50 at full-length human PHD1 and at full-length human PHD2 (setting [1]) was below 100 nM each time.

Consider `Cc1c(-c2nn[nH]n2)cnc(C(=O)NCC(=O)O)c1O` [Compound 64], for which the IC50 at full-length human PHD1 and on full-length human PHD2 was 100 to 1000 nM throughout.

`Cc1c(-c2ccncc2)cnc(C(=O)NCC(=O)O)c1O` [Compound 11, (5-Hydroxy-4-methyl-[3,4′-bipyridine]-6-carbonyl)glycine]: the IC50 on full-length human PHD1 and at full-length human PHD2 (setting [1]) was below 100 nM throughout.

In the case of `Cc1c(CCc2ccccc2)cnc(C(=O)NCC(=O)O)c1O` [Compound 61], the IC50 on full-length human PHD1 and at full-length human PHD2 was 100 to 1000 nM throughout.

Regarding `Cc1c(C#CCOc2ccccc2)cnc(C(=O)NCC(=O)O)c1O` [Compound 53], the IC50 against full-length human PHD1 and on full-length human PHD2 (setting [1]) was below 100 nM in each case.

Turning to `Cc1c(-c2cnn(C3CCN(C(=O)OC(C)(C)C)CC3)c2)cnc(C(=O)NCC(=O)O)c1O` [Compound 6, (5-(1-(1-(Tert-butoxycarbonyl)piperidin-4-yl)-1H-pyrazol-4-yl)-3-hydroxy-4-methylpicolinoyl)glycine], the IC50 at full-length human PHD1 and at full-length human PHD2 (setting [1]) was below 100 nM throughout.

Regarding `Cc1c(-c2nnn(-c3ccccc3)n2)cnc(C(=O)NCC(=O)O)c1O` [Compound 65], the IC50 against full-length human PHD1 and on full-length human PHD2 (setting [1]) was below 100 nM throughout.

`Cc1c(-c2cnn(-c3ccccc3)c2)cnc(C(=O)NCC(=O)O)c1O` [Compound 4, (3-Hydroxy-4-methyl-5-(1-phenyl-1H-pyrazol-4-yl)picolinoyl)glycine]: the IC50 against full-length human PHD1 and at full-length human PHD2 (setting [1]) was below 100 nM throughout.

Regarding `Cc1c(S(=O)(=O)c2ccccc2)cnc(C(=O)NCC(=O)O)c1O` [Compound 54], the IC50 against full-length human PHD1 and on full-length human PHD2 was 100 to 1000 nM throughout.

As for `Cc1cc(Cc2ccc(F)cc2)c(O)c(C(=O)NCC(=O)O)n1` [Compound 24, (4-(4-Fluorobenzyl)-3-hydroxy-6-methylpicolinoyl)glycine], the IC50 against full-length human PHD1 and on full-length human PHD2 was 100 to 1000 nM in each case.

For `Cc1c(-c2cnn(-c3cc(Cl)cc(Cl)c3)c2)cnc(C(=O)NCC(=O)O)c1O` [Compound 66], the IC50 at full-length human PHD1 and on full-length human PHD2 (setting [1]) was below 100 nM in each case.

As to `Cc1c(-c2cnn(-c3ccc(Cl)cc3Cl)c2)cnc(C(=O)NCC(=O)O)c1O` [Compound 60], the IC50 on full-length human PHD1 and on full-length human PHD2 (setting [1]) was below 100 nM each time.

Turning to `Cc1cc(CCOCc2ccccc2)c(O)c(C(=O)NCC(=O)O)n1` [Compound 23, (4-(2-(Benzyloxy)ethyl)-3-hydroxy-6-methylpicolinoyl)glycine], the IC50 at full-length human PHD1 and against full-length human PHD2 was 100 to 1000 nM throughout.

Take `Cc1c(N2CCN(c3ccccc3)CC2)cnc(C(=O)NCC(=O)O)c1O` [Compound 55]: the values for the IC50 against full-length human PHD1 and at full-length human PHD2 were below 100 nM and 100 to 1000 nM, respectively.

Turning to `Cc1c(-c2ccccn2)cnc(C(=O)NCC(=O)O)c1O` [Compound 12, (5′-Hydroxy-4′-methyl-[2,3′-bipyridine]-6′-carbonyl)glycine], the IC50 against full-length human PHD1 and at full-length human PHD2 (setting [1]) was below 100 nM each time.

Regarding `Cc1c(C#Cc2ccccc2)cnc(C(=O)NCC(=O)O)c1O` [Compound 62], the IC50 against full-length human PHD1 and at full-length human PHD2 (setting [1]) was below 100 nM each time.

`Cc1c(-c2cccc(Cl)c2)cnc(C(=O)NC(C)(C)C(=O)O)c1O` [Compound 13, 2-(5-(3-Chlorophenyl)-3-hydroxy-4-methylpicolinamido)-2-methylpropanoic Acid]: the IC50 against full-length human PHD1 and against full-length human PHD2 was above 10000 nM throughout.

With `Cc1c(Cc2ccccc2)cnc(C(=O)NCC(=O)O)c1O` [Compound 58], the IC50 at full-length human PHD1 is 1000 to 10000 nM; on full-length human PHD2 it was 100 to 1000 nM.

For `Cc1c(-c2ccc3c(c2)CCC(C)N3)cnc(C(=O)NCC(=O)O)c1O` (stereo not drawn) [Compound 17, (3-Hydroxy-4-methyl-5-(2-methyl-1,2,3,4-tetrahydroquinolin-6-yl)picolinoyl)glycine], the IC50 on full-length human PHD1 and on full-length human PHD2 (setting [1]) was below 100 nM each time.

As for `Cc1c(-c2cccc(Oc3ccccc3)c2)cnc(C(=O)NCC(=O)O)c1O` [Compound 8, (3-Hydroxy-4-methyl-5-(3-phenoxyphenyl)picolinoyl)glycine], the IC50 against full-length human PHD1 and on full-length human PHD2 (setting [1]) was below 100 nM throughout.

Turning to `Cc1c(Oc2ccccc2)cnc(C(=O)NCC(=O)O)c1O` [Compound 57, 2-(3-hydroxy-4-methyl-5-phenoxypicolinamido)acetic acid], the IC50 was 1000 to 10000 nM against full-length human PHD1 and 100 to 1000 nM on full-length human PHD2.

Turning to `Cc1c(Sc2ccccc2)cnc(C(=O)NCC(=O)O)c1O` [Compound 59], the IC50 against full-length human PHD1 is 1000 to 10000 nM; at full-length human PHD2 it was 100 to 1000 nM.

`Cc1c(-c2cccc(Cl)c2)cnc(C(=O)NC2(C(=O)O)COC2)c1O` [Compound 16, 3-(5-(3-Chlorophenyl)-3-hydroxy-4-methylpicolinamido)oxetane-3-carboxylic Acid]: the IC50 was 1000 to 10000 nM against full-length human PHD1 and above 10000 nM on full-length human PHD2.

As for `Cc1c(-c2nnn(-c3ccc(Cl)cc3)n2)cnc(C(=O)NCC(=O)O)c1O` [Compound 63], the IC50 against full-length human PHD1 and at full-length human PHD2 (setting [1]) was below 100 nM in each case.

As to `Cc1ncccc1-c1cnc(C(=O)NCC(=O)O)c(O)c1C` [Compound 29], the IC50 against full-length human PHD1 and on full-length human PHD2 was 100 to 1000 nM throughout.

`O=C(O)CNC(=O)c1ncc(-c2cccc(Cl)c2)c(C(F)F)c1O` [Compound 70, (5-(3-Chlorophenyl)-4-(difluoromethyl)-3-hydroxypicolinoyl)glycine]: the IC50 against full-length human PHD1 and at full-length human PHD2 was 100 to 1000 nM each time.

Turning to `CCc1c(-c2cccc(Cl)c2)cnc(C(=O)NCC(=O)O)c1O` [Compound 46, (5-(3-chlorophenyl)-4-ethyl-3-hydroxypicolinoyl)glycine], the IC50 against full-length human PHD1 and on full-length human PHD2 (setting [1]) was below 100 nM in each case.

`Cc1c(-c2cccc(Cl)c2)cnc(C(=O)NC2(C(=O)O)CC2)c1O` [Compound 14, 1-(5-(3-Chlorophenyl)-3-hydroxy-4-methylpicolinamido)cyclopropane-1-carboxylic acid]: the IC50 on full-length human PHD1 and against full-length human PHD2 was 1000 to 10000 nM throughout.

`Cc1c(-c2nnn(C3CC3)n2)cnc(C(=O)NCC(=O)O)c1O` [Compound 52]: the IC50 against full-length human PHD1 and at full-length human PHD2 (setting [1]) was below 100 nM throughout.

As to `Cc1c(-c2cnn(-c3ccc(C(F)(F)F)cc3)c2)cnc(C(=O)NCC(=O)O)c1O` [Compound 67], the IC50 at full-length human PHD1 and at full-length human PHD2 (setting [1]) was below 100 nM in each case.

Turning to `Cc1c(N2CCC(c3ccccc3)CC2)cnc(C(=O)NCC(=O)O)c1O` [Compound 56], the IC50 against full-length human PHD1 and on full-length human PHD2 (setting [1]) was below 100 nM throughout.
